# Test results from paper PMC8228537, “Acrylonitrile Derivatives against Trypanosoma cruzi: In Vitro Activity and Programmed Cell Death Study” (Pharmaceuticals, 2021).
# Entries after “also recorded” stand apart in the source; their conditions may differ.
# What was measured:
# [1] = test system: epimastigote stage of T. cruzi; test: Antiparasitic activity, alamarBlue, epimastigotes; assay type: cell-based, Trypanosoma cruzi; conditions: for IC50: 72 h, epimastigote stage of T. cruzi (Y strain), alamarBlue, mean ± SD, NA: not active; for Selectivity index (SI): ratio of CC50 for J774A.1 and IC50 for epimastigotes of T. cruzi
# Description: Epimastigotes of Trypanosoma cruzi (Y strain) were used in this study and cultured in liver infusion tryptose (LIT) medium supplemented with 10% of foetal bovine serum (FBS) at 26 °C.
# In a sterile 96-well plate, a serial dilution of acrylonitriles was carried out in LIT medium supplemented with 10% FBS with a final volume of 100 µL. Parasites were added to wells to reach a concentration of 10^5 parasites per well. Finally, a 10% of alamarBlue Cell Viability Reagent® (ThermoFisher Scientific, Waltham, MA, USA) was added into each well, and the plate was incubated for 72 h at 26°C.
# Trypanosoma cruzi = test: Programmed cell death study (overall conclusion from the PCD assays); assay type: cell-based; conditions: overall conclusion from ROS, mitochondrial potential, ATP and chromatin condensation assays
# Description: Different assays were performed to elucidate which pathways could be triggered by these acrylonitriles. The most probable cellular process induced by our compounds is the apoptosis or programmed cell death (PCD), in which the inflammatory response is weakly activated, in contrast to a necrotic event, where the inflammatory response is strong.
# [2] = Cytotoxicity, alamarBlue, murine macrophages; assay type: cell-based; conditions: mouse, J774A.1 murine macrophage cell line, J774A.1 murine macrophages, mean ± SD
# Description: The cytotoxicity was evaluated against murine macrophages (J774A.1) using the same method mentioned in the antiparasitic assay, based on the alamarBlue Cell Viability Reagent®. In a sterile 96-well plate, 10^4 cells per well were added, then, after the complete adhesion, serial dilutions of the 32 compounds, using a deep well plate, and a 10% of alamarBlue® were joined.
# [3] = test system: epimastigotes of Trypanosoma cruzi; test: Reactive oxygen species analysis (CellROX Deep Red); assay type: cell-based; conditions: 24 h with the IC90, Figure 5
# Description: The CellROX® reagent emits red fluorescence in the presence of reactive oxygen species.
# The oxidative stress was measured with the CellROX® Deep Red Reagent (ThermoFisher Scientific, MA, USA). […] Finally, the fluorescence was analyzed using the EVOS® FL Cell Imaging System (ThermoFisher Scientific, MA, USA) with the Cy5 light cube.
# [4] = test system: epimastigotes of Trypanosoma cruzi; test: Plasmatic membrane permeability analysis (SYTOX Green); assay type: cell-based; conditions: 24 h with the IC90, Figure 4
# Description: The use of the dye SYTOX® Green reagent means that when the plasmatic permeability is altered, it is possible for the reagent to go inside the cells, joining the parasitic DNA and emitting an intense green fluorescence.
# To determine the plasmatic membrane permeability, SYTOX® Green nucleic acid stain fluorescent dye (ThermoFisher Scientific, MA, USA) was used. […] The pellet was resuspended in a 50 µL staining buffer and the Sytox® Green at 1 µM (final concentration). After 15 min of incubation at room temperature, parasites were analyzed. Fluorescence pictures were taken with the EVOS® FL Cell Imaging System (ThermoFisher Scientific, MA, USA).
# [5] = test system: epimastigotes of Trypanosoma cruzi; test: Chromatin condensation analysis (Hoechst 33342/propidium iodide); assay type: cell-based; conditions: 24 h with the IC90, Figure 1
# Description: Vybrant® Apoptosis Assay Kit n°5, Hoechst 33342/Propidium Iodide (ThermoFisher Scientific, MA, USA) was used to determinate the chromatin condensation of the treated parasites. […] Thereafter, Hoechst (5 µg/mL) and propidium iodide (PI) (1 µg/mL) were added and incubated for 20 min at 26 °C. The EVOS® FL Cell Imaging System (ThermoFisher Scientific, MA, USA) was used to capture the fluorescence images, using the DAPI (Hoechst) and RFP (PI) light cubes.
# [6] = test system: epimastigotes of Trypanosoma cruzi; test: ATP level analysis (CellTiter-Glo); assay type: cell-based; conditions: 24 h with the IC90, CellTiter-Glo, Figure 3
# Description: Variations in the level of ATP were measured with the CellTiter-Glo® Luminescent Cell Viability Assay (Promega, WI, USA). […] Then, in a white 96-well plate, the epimastigotes were resuspended in 25µL of culture media and mixed with 25 µL of the kit. After 10 min of incubation at room temperature, the luminescence was measured using an EnSpire Multimode Plate Reader® (PerkinElmer). The results were expressed in percentage of production of ATP level relative to the negative control (without any treatment).
Compound,IC50 ([1]; Trypanosoma cruzi) [µM],Induction of programmed cell death (apoptosis-like process) (Trypanosoma cruzi),CC50 at 24 h [2] [µM],Reactive oxygen species (CellROX Deep Red fluorescence) [3],Selectivity index (SI) [1],Plasma membrane permeability (SYTOX Green fluorescence) [4],Chromatin condensation (Hoechst 33342 blue fluorescence) [5],Dead cells (propidium iodide red fluorescence) [5],Percentage of ATP level relative to untreated control [6] [%],IC50 [1] [µM]
"COC(=O)/C=C/C#N [Compound Q1, (E)-Methyl 3-cyanoacrylate]",17.4 ± 4.75,did not show evidence of causing a programmed cell death mechanism,87.4 ± 7.02,–,–,–,–,–,–,–
"COC(=O)/C=C\C#N [Compound Q2, (Z)-Methyl 3-cyanoacrylate]",25.9 ± 2.78,did not show evidence of causing a programmed cell death mechanism,112 ± 15.8,–,–,–,–,–,–,–
"CCOC(=O)/C=C/C#N [Compound Q3, (E)-Ethyl 3-cyanoacrylate]",46.4 ± 5.73,did not show evidence of causing a programmed cell death mechanism,86.7 ± 22.8,most intense red fluorescence,–,–,–,–,–,–
"CCOC(=O)/C=C\C#N [Compound Q4, (Z)-Ethyl 3-cyanoacrylate]",47.3 ± 10.6,–,43.2 ± 9.83,–,0.91,–,–,–,–,–
"CCCCCCCCOC(=O)/C=C/C#N [Compound Q5, (E)-Octyl 3-cyanoacrylate]",34.3 ± 1.67,robust evidence of inducing all the physiological features of an apoptosis-like process,53.9 ± 12.8,less intense fluorescence,–,more remarkable,"intense blue fluorescence in the nucleus, indicating chromatin condensation","red fluorescence, indicating already dead cells",–,–
"CCCCCCCCOC(=O)/C=C\C#N [Compound Q6, (Z)-Octyl 3-cyanoacrylate]",51.9 ± 7.69,–,28.8 ± 2.53,–,0.55,–,–,–,–,–
"N#C/C=C/C(=O)Oc1ccccc1 [Compound Q7, (E)-phenyl 3-cyanoacrylate]",15.5 ± 1.27,robust evidence of inducing all the physiological features of an apoptosis-like process; also recorded: shown to induce an apoptosis-like cell death,46.5 ± 3.81,less intense fluorescence,–,more remarkable,"intense blue fluorescence in the nucleus, indicating chromatin condensation","red fluorescence, indicating already dead cells",32.68,–
"N#C/C=C\C(=O)Oc1ccccc1 [Compound Q8, (Z)-phenyl 3-cyanoacrylate]",4.36 ± 0.26,shown to induce an apoptosis-like cell death,52.9 ± 4.51,less intense fluorescence,–,–,–,–,–,–
"CCCCCC(=O)/C=C/C#N [Compound Q10, (E)-4-Oxonon-2-enenitrile]",11 ± 1.38,–,10.1 ± 1.46,–,0.92,–,–,–,–,–
"N#C/C=C/C(=O)c1ccccc1 [Compound Q11, (E)-4-Oxo-4-phenylbut-2-enenitrile]",5.53 ± 1.36,–,5.22 ± 1.02,–,0.94,–,–,–,–,–
"N#C/C=C\C(=O)c1ccccc1 [Compound Q12, (Z)-4-Oxo-4-phenylbut-2-enenitrile]",20.9 ± 4.61,–,7.64 ± 1.21,–,0.36,–,–,–,–,–
"N#C/C=C/C(=O)c1cccs1 [Compound Q13, (E)-4-Oxo-4-(thiophen-2-yl)but-2-enenitrile]",25 ± 0.62,–,8.52 ± 0.04,–,0.34,–,–,–,–,–
"N#C/C=C\C(=O)c1cccs1 [Compound Q14, (Z)-4-Oxo-4-(thiophen-2-yl)but-2-enenitrile]",26.5 ± 2.83,–,8.39 ± 0.25,–,–,–,–,–,–,–
"N#C/C=C/C(=O)c1ccco1 [Compound Q15, (E)-4-(Furan-2-yl)-4-oxobut-2-enenitrile]",32.9 ± 0.83,–,6.66 ± 1.77,–,0.20,–,–,–,–,–
"N#C/C=C/C(=O)C1CCCCC1 [Compound Q16, (E)-4-Cyclohexyl-4-oxobut-2-enenitrile]",7.65 ± 1.51,–,4.35 ± 0.25,–,0.57,–,–,–,–,–
"N#C/C=C/C(=O)CCc1ccccc1 [Compound Q17, (E)-4-Oxo-6-phenylhex-2-enenitrile]",14.1 ± 2.53,–,5.24 ± 0.7,–,0.37,–,–,–,–,–
"CCOP(=O)(/C=C/C#N)OCC [Compound Q18, (E)-Diethyl 2-cyanovinylphosphonate]",–,–,–,less intense fluorescence,–,–,–,"red fluorescence, indicating already dead cells",–,14.8 ± 3.06
"N#C/C=C/P(=O)(c1ccccc1)c1ccccc1 [Compound Q19, (E)-3-(diphenylphosphoryl)acrylonitrile]",14.6 ± 3.44,robust evidence of inducing all the physiological features of an apoptosis-like process,22.2 ± 3.24,–,–,more remarkable,"intense blue fluorescence in the nucleus, indicating chromatin condensation","red fluorescence, indicating already dead cells",30.78,–
"N#C/C=C\P(=O)(c1ccccc1)c1ccccc1 [Compound Q20, (Z)-3-(diphenylphosphoryl)acrylonitrile]",49.1 ± 1.12,–,50.6 ± 10.8,–,1.03,–,–,–,–,–
"Cc1ccc(S(=O)(=O)/C=C/C#N)cc1 [Compound Q21, (E)-3-Tosylacrylonitrile]",3.86 ± 0.67,–,–,–,0.83,–,–,–,–,–
"N#C/C=C/C(=O)N1CCCC1 [Compound Q25, (E)-4-Oxo-4-(pyrrolidin-1-yl)but-2-enenitrile]",154 ± 19.8,did not show evidence of causing a programmed cell death mechanism,374 ± 47.9,–,–,–,–,–,–,–
"CON(C)C(=O)/C=C/C#N [Compound Q27, (E)-3-Cyano-N-methoxy-N-methylacrylamide]",291 ± 47,robust evidence of inducing all the physiological features of an apoptosis-like process,480 ± 29.1,less intense fluorescence,–,more remarkable,–,"red fluorescence, indicating already dead cells",< 1,–
"CON(C)C(=O)/C=C\C#N [Compound Q28, (Z)-3-Cyano-N-methoxy-N-methylacrylamide]",–,–,210 ± 8.99,–,–,–,–,–,–,–
"CN(C(=O)/C=C/C#N)c1ccccc1 [Compound Q29, (E)-3-Cyano-N-methyl-N-phenylacrylamide]",138 ± 14,robust evidence of inducing all the physiological features of an apoptosis-like process,327.9 ± 2.85,less intense fluorescence,–,more remarkable,"intense blue fluorescence in the nucleus, indicating chromatin condensation","red fluorescence, indicating already dead cells",< 1,–
